Entries after “also recorded” stand apart in the source; their conditions may differ.
Experiments:
[1] = test system: neuronal (HT22) tumor cell line; assay: growth inhibition of neuronal tumor cell line in cell culture; type: cell-based, mouse
Description: (§1) For the latter cell line, however, the experiments are not complete as yet. […] The effect was concentration-dependent. […] The tumor cells were inhibited selectively beginning after 30 minutes. Following 1 to 3 hours about 90% of the tumor cells were inhibited. For the cell culture, cells were used in RPM1 1640 medium and plated in Falcon flasks.

[2] = test system: glioblastoma multiform-tumor cells; assay: tissue-culture of glioblastoma multiform tumor cells
[3] = test system: glial (C6) tumor cell line; assay: growth inhibition of glial tumor cell line in cell culture; type: cell-based, rat
Description: as §1

[4] = test system: mixed neuronal and glial (U373) tumor cell line; assay: growth inhibition of mixed neuronal and glial tumor cell line in cell culture; type: cell-based, human; settings: experiments are not complete as yet
Description: as §1

[5] = test system: CNS tumor cell lines (HT22, C6, U373); assay: inhibition of CNS tumor cells in culture (lines reported together), cytological changes recorded over time; type: cell-based; settings: for time after which inhibition of tumor cells started: Results section (HT22, C6)
[6] = cited from earlier work
[7] = test system: primary CNS-cells (brain cells of rat fetuses); assay: effect on primary CNS cells in cell culture; type: cell-based
[8] = following 1 to 3 hours, Example 1
[9] = following about 1 to 2 hours, Results section

cytological effect on primary CNS-cells ([7]; following 48 hours) | effect on CNS nerve cells, including stem cells of embryo meningeal cells ([7]; following administration of Taurolidine/Taurultam solutions) | SMILES | direct inhibition of growth of tumor cell line [1] | concentration that inhibits or kills tumor cells in tissue-culture [2] | direct inhibition of growth of tumor cell line [3] | direct inhibition of growth of tumor cell line [4] | time after which inhibition of tumor cells started [5] | tumor cells inhibited [5, 8] | tumor cells inhibited [5, 9] | water solubility [6] | effectiveness relative to Taurolidine [5] | time after which selective inhibition of tumor cells began ([5]; Example 1) | growth inhibition of normal/primary central nervous system cells (selectivity versus tumor cells) ([7]; primary cell lines of fetal rat central nervous system, compared to tumor cells)
– | – | O=S1(=O)CCN(CN2CCS(=O)(=O)NC2)CN1 [Taurolidine, Bis-(1,1-dioxoperhydro-1,2,4-thiadiazinyl-4)methane] | inhibit directly the growth | 0.1 to 4 mg/mL | inhibit directly the growth | inhibit directly the growth | 10 min | about 90% | 90% | up to 2% | – | – | –
no significant cytological effect | remain unaffected | O=S1(=O)CCNCN1 [Taurultam] | inhibit directly the growth | – | inhibit directly the growth | inhibit directly the growth | 10 min | about 90% | 90% | – | almost twice as effective as Taurolidine | 30 min | required significantly higher concentrations and a significantly longer contact time for inhibition; also recorded: not significantly inhibited

— patent US8202860B2, “Methods and compositions for treating primary and secondary tumors of the central nervous system (CNS)” (Ed. Geistlich Soehne AG fuer Chemische Industrie, priority 1999, dated 2012)
